Read-outs that look alike come from different tables or passages of the source.
Experiments:
5-HT1A receptor = biological target: T1, 5-HT1A receptor (Homo sapiens, UniProt P08908); assay: 5-HT1A receptor radioligand competition assay (SPA); format: binding
T1 construct: purchased Perkin Elmer 6110501400UA
T1 sequence (P08908 1-422): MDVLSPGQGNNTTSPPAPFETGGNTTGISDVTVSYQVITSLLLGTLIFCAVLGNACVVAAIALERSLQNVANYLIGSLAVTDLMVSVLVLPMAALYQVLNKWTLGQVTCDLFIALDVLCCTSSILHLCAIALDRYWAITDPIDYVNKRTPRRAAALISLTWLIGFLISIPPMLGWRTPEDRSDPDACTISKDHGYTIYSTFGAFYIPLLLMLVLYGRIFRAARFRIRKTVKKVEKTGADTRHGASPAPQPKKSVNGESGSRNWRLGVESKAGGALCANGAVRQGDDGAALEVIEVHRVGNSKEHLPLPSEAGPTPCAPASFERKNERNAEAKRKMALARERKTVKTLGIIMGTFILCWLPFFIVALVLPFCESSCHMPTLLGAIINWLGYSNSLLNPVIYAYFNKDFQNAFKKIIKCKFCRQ

5-HT1D (r) = biological target: T2, 5-HT1D (r) (Rattus norvegicus, UniProt P28565); assay: Competition assay to measure binding affinity at 5-HT1D receptor; conditions: test ligand 10 μM; [3H]serotonin 1 nM
T2 construct: host or cells: CHO cells

D3 (h) = biological target: T3, D3 (h) (Homo sapiens, UniProt P35462); assay: Competition assay to measure binding affinity at D3 receptor; conditions: test ligand 10 μM; [3H]methylspiperone […]
T3 construct: host or cells: CHO cells

DAT (h) = biological target: T4, DAT (h) (Homo sapiens, UniProt Q01959); assay: Competition assay to measure binding affinity at dopamine transporter (DAT); conditions: test ligand 10 μM; [3H]BTCP 4 nM
T4 construct: host or cells: CHO cells

5-HT7 (h) = biological target: T5, 5-HT7 (h) (Homo sapiens, UniProt P34969); assay: Competition assay to measure binding affinity at 5-HT7 receptor; conditions: test ligand 10 μM; [3H]LSD 4 nM
T5 construct: host or cells: HEK-293 cells

5-HT2A receptor = 5-HT2A receptor (Homo sapiens, UniProt P28223); assay: 5-HT2A receptor radioligand competition assay (SPA)
D2 (h) = biological target: T6, D2 (h) (Homo sapiens, UniProt P14416); assay: Competition assay to measure binding affinity at D2L receptor; conditions: test ligand 10 μM; [3H]methylspiperone 0.3 nM
T6 construct: host or cells: HEK-293 cells

MT1 (ML1A) (h) = biological target: T7, MT1 (ML1A) (h) (Homo sapiens, UniProt P48039); assay: Competition assay to measure binding affinity at MT1 receptor; conditions: test ligand 10 μM; [125I]2-iodomelatonin 0.01 nM
T7 construct: host or cells: CHO cells

5-HT1B (h) = biological target: T8, 5-HT1B (h) (Homo sapiens, UniProt P28222); assay: Competition assay to measure binding affinity at 5-HT1B receptor; conditions: test ligand 10 μM; [3H]GR125743 1 nM
T8 construct: host or cells: Chem-1 (RBL) cells

5-HT2B (h) = biological target: T9, 5-HT2B (h) (Homo sapiens, UniProt P41595); assay: Competition assay to measure binding affinity at 5-HT2B receptor; conditions: test ligand 10 μM; [3H]mesulergine 2 nM
T9 construct: host or cells: CHO cells

NET (h) = biological target: T10, NET (h) (Homo sapiens, UniProt P23975); assay: Competition assay to measure binding affinity at norepinephrine transporter (NET); conditions: test ligand 10 μM; [3H]nisoxetine 1 nM
T10 construct: host or cells: CHO cells

5-HT2C (h) = biological target: T11, 5-HT2C (h) (Homo sapiens, UniProt P28335); assay: Competition assay to measure binding affinity at 5-HT2C receptor; conditions: test ligand 10 μM; [125I](±)DOI 0.1 nM
T11 construct: host or cells: HEK-293 cells
T11 sequence (P28335 33-458): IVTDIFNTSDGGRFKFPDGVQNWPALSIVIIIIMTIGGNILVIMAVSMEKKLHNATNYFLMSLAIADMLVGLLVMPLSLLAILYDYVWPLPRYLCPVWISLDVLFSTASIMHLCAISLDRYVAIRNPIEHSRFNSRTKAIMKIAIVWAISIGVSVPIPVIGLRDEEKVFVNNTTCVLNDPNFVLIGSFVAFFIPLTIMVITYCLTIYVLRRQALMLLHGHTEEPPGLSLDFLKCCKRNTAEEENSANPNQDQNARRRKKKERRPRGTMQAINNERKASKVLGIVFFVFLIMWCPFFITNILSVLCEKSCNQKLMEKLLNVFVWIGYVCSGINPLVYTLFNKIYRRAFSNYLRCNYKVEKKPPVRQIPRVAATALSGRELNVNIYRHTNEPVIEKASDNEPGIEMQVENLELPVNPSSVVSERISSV

[1] = biological target: T12, human serotonin transporter (SERT) (Homo sapiens, UniProt P31645); assay: biochemical; format: binding
T12 construct: purchased PerkinElmer RBHSTM400UA

alpha2A (h) = biological target: T13, alpha2A (h) (Homo sapiens, UniProt P08913); assay: Competition assay to measure binding affinity at alpha2A receptor; conditions: test ligand 10 μM; [3H]RX 821002 1 nM; read-out: α-2A, percent of control-specific binding
T13 construct: host or cells: CHO cells
T13 sequence (P08913 1-465): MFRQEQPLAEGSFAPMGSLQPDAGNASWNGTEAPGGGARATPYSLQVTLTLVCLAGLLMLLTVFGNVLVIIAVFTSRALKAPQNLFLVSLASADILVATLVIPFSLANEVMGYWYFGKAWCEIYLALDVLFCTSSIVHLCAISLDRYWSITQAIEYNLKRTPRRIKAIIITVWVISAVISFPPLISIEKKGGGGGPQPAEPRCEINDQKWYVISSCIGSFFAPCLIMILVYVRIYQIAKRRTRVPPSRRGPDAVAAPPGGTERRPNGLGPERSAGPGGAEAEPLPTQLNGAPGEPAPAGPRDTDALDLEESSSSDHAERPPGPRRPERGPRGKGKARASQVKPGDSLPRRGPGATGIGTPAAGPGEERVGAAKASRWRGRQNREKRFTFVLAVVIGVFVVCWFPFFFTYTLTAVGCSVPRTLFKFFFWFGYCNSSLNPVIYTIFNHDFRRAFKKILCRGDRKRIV

[2] = competition with 0.5 nM 8-hydroxy-DPAT [3H], test compound 3 nM to 1 mM, read-out: 5-HT1A, Ki

T8 sequence (P28222 whole entry): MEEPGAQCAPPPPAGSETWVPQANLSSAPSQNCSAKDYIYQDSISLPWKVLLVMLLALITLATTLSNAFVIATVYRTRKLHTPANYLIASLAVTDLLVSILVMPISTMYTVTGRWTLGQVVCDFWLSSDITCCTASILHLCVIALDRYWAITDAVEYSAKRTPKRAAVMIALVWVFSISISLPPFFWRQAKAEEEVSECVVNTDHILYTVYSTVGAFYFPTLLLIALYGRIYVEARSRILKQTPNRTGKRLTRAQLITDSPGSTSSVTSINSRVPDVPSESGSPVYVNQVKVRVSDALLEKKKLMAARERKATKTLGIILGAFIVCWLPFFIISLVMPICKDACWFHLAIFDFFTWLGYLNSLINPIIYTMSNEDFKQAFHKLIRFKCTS
T9 sequence (P41595 whole entry): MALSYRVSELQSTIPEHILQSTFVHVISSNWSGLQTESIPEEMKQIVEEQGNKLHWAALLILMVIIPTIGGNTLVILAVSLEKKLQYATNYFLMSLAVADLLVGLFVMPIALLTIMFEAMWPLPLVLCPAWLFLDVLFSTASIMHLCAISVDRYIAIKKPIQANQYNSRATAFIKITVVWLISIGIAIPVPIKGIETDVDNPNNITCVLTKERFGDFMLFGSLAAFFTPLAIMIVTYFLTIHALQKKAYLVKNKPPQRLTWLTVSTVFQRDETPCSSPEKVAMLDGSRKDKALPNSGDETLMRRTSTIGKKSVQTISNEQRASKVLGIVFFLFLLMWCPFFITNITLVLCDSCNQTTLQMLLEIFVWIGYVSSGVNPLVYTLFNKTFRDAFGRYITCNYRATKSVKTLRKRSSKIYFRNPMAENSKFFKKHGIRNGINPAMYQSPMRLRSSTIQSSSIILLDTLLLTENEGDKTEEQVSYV
T10 sequence (P23975 whole entry): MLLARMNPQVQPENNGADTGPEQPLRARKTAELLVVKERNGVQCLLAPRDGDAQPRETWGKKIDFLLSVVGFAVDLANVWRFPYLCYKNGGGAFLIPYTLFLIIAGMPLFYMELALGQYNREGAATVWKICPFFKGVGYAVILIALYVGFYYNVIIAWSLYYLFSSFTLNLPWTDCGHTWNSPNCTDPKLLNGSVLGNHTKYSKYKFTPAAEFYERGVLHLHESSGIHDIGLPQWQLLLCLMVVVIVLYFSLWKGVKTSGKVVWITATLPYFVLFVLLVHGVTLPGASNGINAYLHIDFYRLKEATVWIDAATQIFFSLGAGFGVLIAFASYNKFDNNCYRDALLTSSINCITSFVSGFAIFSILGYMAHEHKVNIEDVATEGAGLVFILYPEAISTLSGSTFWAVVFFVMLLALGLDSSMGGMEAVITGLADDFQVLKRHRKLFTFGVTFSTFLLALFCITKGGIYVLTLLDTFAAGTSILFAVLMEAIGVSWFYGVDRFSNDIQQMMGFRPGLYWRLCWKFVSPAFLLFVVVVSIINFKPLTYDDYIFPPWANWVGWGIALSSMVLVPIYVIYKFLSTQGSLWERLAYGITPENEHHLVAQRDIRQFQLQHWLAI
T2 sequence (P28565 whole entry): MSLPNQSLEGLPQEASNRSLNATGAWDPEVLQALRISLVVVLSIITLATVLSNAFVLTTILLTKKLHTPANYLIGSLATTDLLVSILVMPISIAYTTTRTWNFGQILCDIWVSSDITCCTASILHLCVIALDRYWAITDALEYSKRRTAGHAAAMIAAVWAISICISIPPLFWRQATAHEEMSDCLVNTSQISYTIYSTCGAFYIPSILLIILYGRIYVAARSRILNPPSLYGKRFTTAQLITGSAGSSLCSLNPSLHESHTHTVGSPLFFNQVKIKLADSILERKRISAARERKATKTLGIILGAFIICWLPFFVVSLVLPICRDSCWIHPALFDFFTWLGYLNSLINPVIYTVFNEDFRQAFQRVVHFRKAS
Sequence of 5-HT2A receptor (P28223 whole entry): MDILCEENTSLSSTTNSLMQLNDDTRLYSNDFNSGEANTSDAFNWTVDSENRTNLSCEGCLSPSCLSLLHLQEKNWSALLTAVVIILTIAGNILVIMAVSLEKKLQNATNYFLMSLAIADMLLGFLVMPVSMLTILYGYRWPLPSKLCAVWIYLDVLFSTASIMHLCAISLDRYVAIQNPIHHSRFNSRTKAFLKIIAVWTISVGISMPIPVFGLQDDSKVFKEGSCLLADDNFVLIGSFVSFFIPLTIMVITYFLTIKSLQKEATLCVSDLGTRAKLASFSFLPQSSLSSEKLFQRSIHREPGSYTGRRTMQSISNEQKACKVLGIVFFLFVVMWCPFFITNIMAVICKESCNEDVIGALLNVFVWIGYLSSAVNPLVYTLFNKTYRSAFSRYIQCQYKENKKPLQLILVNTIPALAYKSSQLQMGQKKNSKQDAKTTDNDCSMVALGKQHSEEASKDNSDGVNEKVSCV
T12 sequence (P31645 whole entry): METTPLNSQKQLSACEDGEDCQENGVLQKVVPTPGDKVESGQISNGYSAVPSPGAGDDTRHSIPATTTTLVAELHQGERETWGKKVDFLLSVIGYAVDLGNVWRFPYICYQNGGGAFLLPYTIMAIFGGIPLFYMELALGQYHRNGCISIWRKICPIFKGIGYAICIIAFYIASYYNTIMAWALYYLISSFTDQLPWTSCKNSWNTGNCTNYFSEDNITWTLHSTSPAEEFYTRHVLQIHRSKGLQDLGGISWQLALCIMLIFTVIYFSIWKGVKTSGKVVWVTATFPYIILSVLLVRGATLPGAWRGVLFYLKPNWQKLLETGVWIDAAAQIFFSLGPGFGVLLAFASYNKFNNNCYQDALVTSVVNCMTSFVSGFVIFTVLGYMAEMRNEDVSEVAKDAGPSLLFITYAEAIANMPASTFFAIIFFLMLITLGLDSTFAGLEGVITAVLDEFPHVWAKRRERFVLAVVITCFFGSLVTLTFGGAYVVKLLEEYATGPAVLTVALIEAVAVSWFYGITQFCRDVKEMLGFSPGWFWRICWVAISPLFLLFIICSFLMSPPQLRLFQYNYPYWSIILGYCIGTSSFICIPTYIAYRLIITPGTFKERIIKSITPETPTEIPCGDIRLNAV
T4 sequence (Q01959 whole entry): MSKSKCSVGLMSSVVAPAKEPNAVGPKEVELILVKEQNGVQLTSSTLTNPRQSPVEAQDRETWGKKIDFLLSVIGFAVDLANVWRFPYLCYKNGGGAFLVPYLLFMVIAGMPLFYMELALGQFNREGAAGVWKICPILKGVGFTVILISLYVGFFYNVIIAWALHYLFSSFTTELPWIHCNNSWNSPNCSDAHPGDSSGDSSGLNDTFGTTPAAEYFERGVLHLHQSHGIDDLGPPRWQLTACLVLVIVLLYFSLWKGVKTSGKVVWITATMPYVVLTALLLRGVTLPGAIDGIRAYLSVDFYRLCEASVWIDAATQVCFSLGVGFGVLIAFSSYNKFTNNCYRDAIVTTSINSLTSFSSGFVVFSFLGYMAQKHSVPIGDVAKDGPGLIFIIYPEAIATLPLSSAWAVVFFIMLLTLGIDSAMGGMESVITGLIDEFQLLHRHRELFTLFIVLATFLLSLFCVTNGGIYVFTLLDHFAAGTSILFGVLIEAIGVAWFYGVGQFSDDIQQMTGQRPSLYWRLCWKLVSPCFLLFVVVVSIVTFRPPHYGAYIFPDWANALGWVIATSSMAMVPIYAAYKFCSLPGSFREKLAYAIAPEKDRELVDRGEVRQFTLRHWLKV
T5 sequence (P34969 whole entry): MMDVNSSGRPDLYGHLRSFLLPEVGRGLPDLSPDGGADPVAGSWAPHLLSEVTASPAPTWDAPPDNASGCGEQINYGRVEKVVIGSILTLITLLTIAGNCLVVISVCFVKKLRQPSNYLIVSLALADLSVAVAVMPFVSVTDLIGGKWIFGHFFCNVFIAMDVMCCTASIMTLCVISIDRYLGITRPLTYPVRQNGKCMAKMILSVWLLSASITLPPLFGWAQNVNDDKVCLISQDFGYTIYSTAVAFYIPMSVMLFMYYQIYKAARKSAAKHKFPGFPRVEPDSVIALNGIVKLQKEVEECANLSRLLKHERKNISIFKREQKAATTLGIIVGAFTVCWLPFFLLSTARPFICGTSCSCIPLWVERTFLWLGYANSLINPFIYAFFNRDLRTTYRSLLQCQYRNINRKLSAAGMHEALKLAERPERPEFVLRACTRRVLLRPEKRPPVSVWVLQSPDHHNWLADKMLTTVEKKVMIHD
T7 sequence (P48039 whole entry): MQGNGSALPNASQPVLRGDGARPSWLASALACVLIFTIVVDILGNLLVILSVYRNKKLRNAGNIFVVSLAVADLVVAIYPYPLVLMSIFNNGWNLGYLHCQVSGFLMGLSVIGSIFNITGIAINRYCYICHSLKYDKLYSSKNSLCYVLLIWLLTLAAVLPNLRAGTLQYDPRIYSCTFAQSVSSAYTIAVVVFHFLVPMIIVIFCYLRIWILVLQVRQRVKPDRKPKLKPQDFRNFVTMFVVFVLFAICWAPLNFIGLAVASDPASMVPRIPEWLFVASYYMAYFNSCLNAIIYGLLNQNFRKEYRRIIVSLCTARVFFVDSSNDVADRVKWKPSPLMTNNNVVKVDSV
T6 sequence (P14416 whole entry): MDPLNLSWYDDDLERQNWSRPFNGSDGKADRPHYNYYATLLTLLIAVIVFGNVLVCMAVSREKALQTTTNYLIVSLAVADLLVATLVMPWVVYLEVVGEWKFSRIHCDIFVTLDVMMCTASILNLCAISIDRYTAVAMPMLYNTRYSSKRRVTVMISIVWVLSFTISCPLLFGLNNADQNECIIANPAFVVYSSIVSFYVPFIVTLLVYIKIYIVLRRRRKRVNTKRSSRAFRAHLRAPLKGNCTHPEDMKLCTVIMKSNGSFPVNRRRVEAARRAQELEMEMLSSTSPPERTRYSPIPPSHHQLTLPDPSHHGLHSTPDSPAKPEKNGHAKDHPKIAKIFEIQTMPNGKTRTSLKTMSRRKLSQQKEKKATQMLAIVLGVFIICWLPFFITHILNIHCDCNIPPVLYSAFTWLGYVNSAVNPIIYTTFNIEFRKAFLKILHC

| SMILES | Ki (5-HT1A receptor) | HT1D, percent of control-specific binding (5-HT1D (r)) | D3, percent of control-specific binding (D3 (h)) | DAT, percent of control-specific binding (DAT (h)) | HT7, percent of control-specific binding (5-HT7 (h)) | Ki (5-HT2A receptor) | D2, percent of control-specific binding (D2 (h)) | MT1, percent of control-specific binding (MT1 (ML1A) (h)) | HT1B, percent of control-specific binding (5-HT1B (h)) | HT2B, percent of control-specific binding (5-HT2B (h)) | NET, percent of control-specific binding (NET (h)) | HT2C, percent of control-specific binding (5-HT2C (h)) | Ki [1] | inhibition at 10 µM (alpha2A (h)) | Ki (5-HT1A receptor; [2]) | SERT binding, binding curve in words [1] |
| --- | --- | --- | --- | --- | --- | --- | --- | --- | --- | --- | --- | --- | --- | --- | --- | --- |
| CC(Cc1ccc2c(c1)OCO2)N1CCC1 (stereo not drawn) [A(II)] | 0.926 µM | 43% | 56% | 86% | 59% | 13 µM | 13% | 3% | 17% | 84% | 77% | 94% | 1.87 µM | 60% | – | – |
| CC(Cc1ccc2c(c1)OCO2)N1CCOCC1 (stereo not drawn) [A(III)] | 38.6 µM | 0% | 9% | 9% | 3% | 42 µM | 12% | 0% | 0% | 13% | 0% | 3% | 26.3 µM | 32% | – | – |
| CC(Cc1ccc2c(c1)OCO2)N1CC(NC(=O)OC(C)(C)C)C1 (stereo not drawn) [A(IV)] | – | 13% | 84% | 20% | 79% | 15 µM | 37% | 3% | 15% | 94% | 15% | 69% | 49.8 µM | 75% | 1.6 µM | – |
| CC(Cc1ccc2c(c1)OCCO2)NCc1cc2c(cc1Br)OCO2 (stereo not drawn) [A(IX)] | 0.986 µM | 83% | 45% | 75% | 72% | 19 µM | 35% | 24% | 1% | 97% | 47% | 88% | 0.223 µM | 82% | – | – |
| COc1cc2c(cc1CNC(C)Cc1ccc3c(c1)OCO3)OCO2 (stereo not drawn) [A(V)] | 1.88 µM | 0% | 23% | 84% | 68% | 19 µM | 19% | 23% | 0% | 92% | 83% | 90% | 1.28 µM | 74% | – | – |
| CC(Cc1ccc2c(c1)OCO2)NCc1cc2c(cc1Br)OCO2 (stereo not drawn) [A(VI)] | 1.52 µM | 47% | 42% | 79% | 67% | 5.3 µM | 39% | 20% | 0% | 99% | 55% | 97% | 0.475 µM | 74% | – | binds SERT |
| CC(Cc1ccc2c(c1)OCO2)NN(C)C (stereo not drawn) [A(VIII)] | – | 0% | 18% | 38% | 17% | 3.38 µM | 12% | 33% | 0% | 67% | 2% | 79% | 22.6 µM | 8% | 19.6 µM | – |
| COc1cc2c(cc1CNC(C)Cc1ccc3c(c1)OCCO3)OCO2 (stereo not drawn) [A(X)] | 1.1 µM | 10% | 25% | 84% | 59% | 12 µM | 13% | 15% | 0% | 89% | 49% | 63% | 2.36 µM | 81% | – | – |
| CC(Cc1ccc2c(c1)OCCO2)NCc1cc2c(cc1Br)OCCO2 (stereo not drawn) [A(XI)] | 0.507 µM | 31% | 36% | 47% | 62% | 7 µM | 40% | 15% | 7% | 94% | 64% | 63% | 0.191 µM | 92% | – | – |
| O=C(Cc1c(Br)ccc2c1OCO2)N1CCCC1 [A(XXVI)] | – | 0% | 0% | 0% | 0% | 31 µM | 0% | 30% | 0% | 1% | 0% | 1% | – | 0% | 44.4 µM | – |
| O=C(Cc1ccc2c(c1)OC(F)(F)O2)N1CCCC1 [A(XXVII)] | – | 2% | 0% | 5% | 0% | – | 0% | 2% | 0% | 5% | 15% | 9% | 634 µM | 0% | > 1000 µM | – |

From patent US12428408B2, “Fused heterocyclic mescaline derivatives” (Enveric Biosciences Canada Inc., priority 2022, dated 2025)
